Results on eight compounds are retold here after patent publication US8067015B2, “Methods and compositions for the treatment and prevention of Staphylococcus and other bacterial infections” (priority 1997, dated 2011).

Type in all cases: in vivo
Experiment [1] relates to S. epidermidis GISE strain. The experiment is described as follows: Rat subcutaneous Dacron graft infection model, GISE strain. To be noted: rats; for Bacterial concentration, GISE: 2×10^7 bacteria, explanted day 7, mean ± SD. The protocol: (§1) Rats (Wistar adult males (300-350 g), n=15/experimental group) were anaesthetized, hair on their back shaved and the skin cleansed with 10% povidone-iodine solution. A subcutaneous pocket was made on the side of the median line by a 1.5 cm incision. Aseptically, 1 cm^2 sterile collagen-sealed Dacron graft (Albograft™, Sorin Biomedica Cardio, S.p.A., Saluggi VC, Italy) was implanted into the pocket. […] Pockets were closed by skin clips and 1 ml sterile saline solution with or without 2×10^7 bacteria was inoculated onto the graft surface using a tuberculin syringe to create a subcutaneous fluid-filled pocket. Some of the animals that had grafts soaked only with RIP or saline were injected intraperitoneally with antibiotics (cefazolin 30 mg/kg, imipenem 30 mg/kg, teicoplanin 10 mg/kg, levofloxacin 10 mg/kg). Grafts were explanted 7 days following implantation.
(§2) The explanted grafts were placed in sterile tubes, washed in sterile saline solution, placed in tubes containing 10 ml of phosphate-buffered saline solution and sonicated for 5 min to remove the adherent bacteria from the grafts. Quantitation of viable bacteria was performed by culturing serial 10-fold dilutions (0.1 ml) of the bacterial suspension on blood agar plates. All plates were incubated at 37° C. for 48 hr and evaluated for the presence of the strain. Bacteria were quantitated by counting the number of colony forming unites (CFU) per plate. To determine if bacteria were efficiently removed from the graft, washed and sonicated grafts were observed under a Nikon Eclipse E 600 optical microscope (Nikon Y-THS, Japan).
(§3) Quantitative culture results of the in vivo experiments were presented as mean+SD of the mean. Comparisons of the results were performed by the analysis of variance (ANOVA) on the log-transformed data. Statistical analysis was performed for in vitro adhesion assays using Student's t-Test by Microsoft Excel (Microsoft, Wash.). Significance was accepted when the P value was <0.05.
(§4) To test if RIP can prevent graft-associated infections, Dacron grafts were coated with or without RIP, and with or without various types of antibiotics (for local prophylaxis experiments). Coated grafts were implanted in rats, bacteria injected into the implants, implants removed after a week, and bacterial load determined. Alternatively, Dacron grafts were first coated with RIP, bacteria injected, and antibiotics were administered by the intraperitoneal route (for parenteral prophylaxis experiments). As a negative control, grafts were implanted without local or parenteral RIP/antibiotics prophylaxis and no bacteria were injected. As a positive control, grafts were implanted, bacteria were injected, but no RIP/antibiotics prophylaxis was given.
(§5) Animals (15/group) received a Dacron-graft implanted in a subcutaneous pocket. Graft was subsequently infected with either S. epidermidis (tested on MSSE, MRSE and GISE) or with S. aureus (tested on MSSA, MRSA and GISA). […]

The test system of experiment [2] is S. epidermidis MSSE strain. The experiment is described as follows: Rat subcutaneous Dacron graft infection model, MSSE strain. To be noted: rats; for Bacterial concentration, MSSE: 2×10^7 bacteria, explanted day 7, mean ± SD. The procedure: as §1, §2, §3, §4, §5
For experiment [3], the system named is S. epidermidis MRSE strain. Kind of experiment: Rat subcutaneous Dacron graft infection model, MRSE strain. To be noted: rats; for Bacterial concentration, MRSE: 2×10^7 bacteria, explanted day 7, mean ± SD. The protocol: as §1, §2, §3, §4
Animals (15/group) received a Dacron-graft implanted in a subcutaneous pocket. Graft was subsequently infected with either S. epidermidis (tested on MSSE, MRSE and GISE) or with S. aureus (tested on MSSA, MRSA and GISA). The Dacron-graft prior to implantation was soaked in saline with or without 20 mg/l of RIP and some animals received […] of RIP i.p. as a prophylaxis treatment.

[4] abbreviates: B. Parenteral prophylaxis: antibiotic intraperitoneally (cefazolin 30, imipenem 30, teicoplanin 10, levofloxacin 10 mg/kg), RIP as 10 mg/l graft soak.
Setting [5] is: A. Local prophylaxis: graft soaked 20 min in RIP 10 mg/l and/or antibiotic (mupirocin 100, quinupristin-dalfopristin 50, levofloxacin 30, rifampin 5 mg/l).
[6] abbreviates: peptide-soaked/coated Dacron graft (RIP 10 mg/l), no antibiotic, day 7.

Regarding `Cc1nnc(SCC2=C(C(=O)O)N3C(=O)[C@@H](NC(=O)Cn4cnnn4)[C@H]3SC2)s1` [Cefazolin, cefazolin], the “Bacterial concentration, GISE” value in experiment [1] (setting [4]) is recorded as 590 ± 200 ×10^4 CFU/ml. Besides, the “Bacterial concentration, MSSE” value in experiment [2] (setting [4]) was 0.64 ± 0.19 ×10^4 CFU/ml. The “Bacterial concentration, MRSE” value in experiment [3] (setting [4]) is recorded as 370 ± 120 ×10^4 CFU/ml.
Regarding `C[C@@H](O)[C@H]1C(=O)N2C(C(=O)O)=C(SCCN=CN)C[C@H]12` [Imipenem, imipenem], the “Bacterial concentration, GISE” value in experiment [1] (setting [4]) is recorded as 89 ± 36 ×10^4 CFU/ml. Further, the “Bacterial concentration, MSSE” value in experiment [2] (setting [4]) is 0.73 ± 0.2 ×10^4 CFU/ml. For the same compound, the “Bacterial concentration, MRSE” value in experiment [3] (setting [4]) is 4 ± 1.8 ×10^4 CFU/ml.
In the case of `C[C@H]1COc2c(N3CCN(C)CC3)c(F)cc3c(=O)c(C(=O)O)cn1c23` [Levofloxacin, levofloxacin], the “Bacterial concentration, GISE” value in experiment [1] (setting [5]) is listed as 280 ± 40 ×10^4 CFU/ml; in experiment [1] (setting [4]), 480 ± 170 ×10^4 CFU/ml. Moreover, the “Bacterial concentration, MSSE” value was 4.2 ± 2.1 ×10^4 CFU/ml in experiment [2] (setting [5]) and 3.5 ± 1.1 ×10^4 CFU/ml in experiment [2] (setting [4]). Besides, the “Bacterial concentration, MRSE” value in experiment [3] (setting [5]) is listed as 6.8 ± 2.5 ×10^4 CFU/ml; in experiment [3] (setting [4]), 3.9 ± 1.4 ×10^4 CFU/ml.
On to `C/C(=C\C(=O)OCCCCCCCCC(=O)O)C[C@@H]1OC[C@H](C[C@@H]2O[C@H]2[C@@H](C)[C@H](C)O)[C@@H](O)[C@H]1O` [Mupirocin, mupirocin], for which, in experiment [1] (setting [5]), the “Bacterial concentration, GISE” value is 0.07 ± 0.018 ×10^4 CFU/ml. Moreover, the “Bacterial concentration, MSSE” value in experiment [2] (setting [5]) is on record as 0.064 ± 0.015 ×10^4 CFU/ml. The “Bacterial concentration, MRSE” value in experiment [3] (setting [5]) was 0.035 ± 0.014 ×10^4 CFU/ml.
On the same counts, the results for `CO[C@H]1/C=C/O[C@@]2(C)Oc3c(C)c(O)c4c(O)c(c(/C=N/N5CCN(C)CC5)c(O)c4c3C2=O)NC(=O)/C(C)=C\C=C\[C@H](C)[C@H](O)[C@@H](C)[C@@H](O)[C@@H](C)[C@H](OC(C)=O)[C@@H]1C` [Rifampicin, rifampin] are 84 ± 27 ×10^4 CFU/ml, 0.73 ± 0.2 ×10^4 CFU/ml and 0.8 ± 0.37 ×10^4 CFU/ml.
On to YKPETNF [inactive RIP peptide analogue], for which the “Quantitative culture results of explanted graft, GISE strain” value in experiment [1] (setting [6]) is on record as 6.52×10^6±3×10^6 CFU/ml. In addition, in experiment [2] (setting [6]), the “Quantitative culture results of explanted graft, MSSE strain” value is given as 5.4×10^6±8×10^5 CFU/ml. Also, the “Quantitative culture results of explanted graft, MRSE strain” value in experiment [3] (setting [6]) is 7.08×10^6±2.1×10^6 CFU/ml.
With quinupristin-dalfopristin, in experiment [1] (setting [5]), the “Bacterial concentration, GISE” value is reported as 0.0069 ± 0.0013 ×10^4 CFU/ml. Besides, the “Bacterial concentration, MSSE” value in experiment [2] (setting [5]) is listed as 0.0026 ± 0.0003 ×10^4 CFU/ml. In experiment [3] (setting [5]), the “Bacterial concentration, MRSE” value is 0.0048 ± 0.001 ×10^4 CFU/ml.
Take teicoplanin: the “Bacterial concentration, GISE” value in experiment [1] (setting [4]) was 57 ± 24 ×10^4 CFU/ml. The “Bacterial concentration, MSSE” value in experiment [2] (setting [4]) is reported as 0.0084 ± 0.0004 ×10^4 CFU/ml. Moreover, the “Bacterial concentration, MRSE” value in experiment [3] (setting [4]) is listed as 0.072 ± 0.008 ×10^4 CFU/ml.
